Data as given in patent publication US20110065787A1, “THERAPEUTIC AGENT FOR MALE STERILITY” (SBI ALApromo., Ltd., priority 2008, published 2011).
“Also recorded” adds a separate entry of the source.

Assays:
[1] = system: healthy volunteers, married men; test: Subjective estimation of erectile effect in healthy volunteers (Example 3); assay type: in vivo, human
Protocol: 1 g of ALA hydrochloride was dissolved into 50 mL of 5% glucose aqueous solution (test solution), and administered to 7 healthy volunteers, married men from 28 to 44 years old. They ingested orally the test solution (13.9 to 22.2 mg/kg) without taking breakfast.

male rats (Slc:Wistar) [2] = test: Organ weights at autopsy of male rats after repeated oral administration (Example 1); conditions: 500 mg/kg oral once a day, compared to the control group, FIG. 1
male rats (Slc:Wistar) [3] = test: Crossing test: conception rate of copulated animals (Example 2); assay type: in vivo, rat
Protocol: Forty 10 week-old male rats (Slc:Wistar) and forty 9 week-old female rats were obtained, quarantined for 7 days, and were habituated and bred for 13 days. δ-amino levulinic acid (herein after referred to as ALA) phosphate was weighed, dissolved into injection solvent to prepare a 50 mg/mL solution.
After day 15 from administration of Example 1, crossing period was set as 14 days, and 1 female was housed per 1 male in the control group and in the 500 mg/kg-group.

[4] = 1 g oral in 5% glucose solution (13.9 to 22.2 mg/kg), one line per volunteer 1-7, hydrochloride

With Cl.NCC(=O)CCC(=O)O [ALA hydrochloride, δ-amino levulinic acid hydrochloride] the “Note (sexual intercourse, pregnancy)” value [1, 4] was “pregnant; also recorded: No sexual intercourse; also recorded: No sexual intercourse,”, the “Result (erectile, individual subjective estimation)” value [1, 4] was “Δ (when no change is observed by (Δ))” and the “volunteers in whom erectile was observed on that night” value ([1]; 1 g oral, 7 healthy volunteers) was 5 out of 7. For the same compound, the “volunteers who had sexual intercourse, and pregnancy was confirmed” value ([1]; 1 g oral, among the volunteers with erectile) was 2.
In the case of NCC(=O)CCC(=O)O.O=P(O)(O)O [ALA phosphate, δ-amino levulinic acid phosphate], the “net weight of seminal vesicle” value (male rats (Slc:Wistar) [2]) is reported as “significant high level”, the “weight volume ratio to the body weight of seminal vesicle” value (male rats (Slc:Wistar) [2]) is reported as “significant high level” and the “conception succeeded (number of rats)” value (male rats (Slc:Wistar) [3]; 500 mg/kg-group, control 16 out of 20) is reported as 17 out of 19. For the same compound, the “conception rate of copulated animals” value (male rats (Slc:Wistar) [3]; male rats 500 mg/kg oral once a day, crossing period 14 days after day 15, control group 80.0%) was 94.4%.
